Data taken from US8211901B2, “Naphthamide derivatives as multi-target protein kinase inhibitors and histone deacetylase inhibitors” (Shenzhen Chipscreen Biosciences Ltd., priority 2009, dated 2012).

How the values were obtained:
[1] = tested on: A-498; assay: Tumor cell proliferation (MTS), A-498; assay type: cell-based; details: Homo sapiens, A498; 72 hours, complete medium
Procedure: (§1) Measurement of In Vivo Cell Proliferation:
(§2) Tumor cells were trypsinized and plated into 96-well plates at 3,000 per well and incubated in complete medium with 10% FBS for 24 hours. Compounds were added over a final concentration range of 100 μmol/L to 100 nmol/L in 0.1% DMSO and incubated for 72 hours in complete medium. The effects on proliferation were determined by addition of MTS reagent (Promega) according to the instruction, incubation for 2 hours at 37° C. in CO2 incubator, and record the absorbance at 490 nm using an ELISA plate reader.

[2] = target: T1, human PDGFRβ (Homo sapiens, UniProt P09619); assay: PDGF dependent cell proliferation (MTS); assay type: cell-based; details: PDGFRβ NIH-3T3 cells, PDGF BB 50 ng/ml, 72 hours, serum-free medium; read-out: GI50 nM (PDGF ligand-dependent cell proliferation)
T1 construct: expressed in transfected cells
T1 sequence (P09619 33-1106): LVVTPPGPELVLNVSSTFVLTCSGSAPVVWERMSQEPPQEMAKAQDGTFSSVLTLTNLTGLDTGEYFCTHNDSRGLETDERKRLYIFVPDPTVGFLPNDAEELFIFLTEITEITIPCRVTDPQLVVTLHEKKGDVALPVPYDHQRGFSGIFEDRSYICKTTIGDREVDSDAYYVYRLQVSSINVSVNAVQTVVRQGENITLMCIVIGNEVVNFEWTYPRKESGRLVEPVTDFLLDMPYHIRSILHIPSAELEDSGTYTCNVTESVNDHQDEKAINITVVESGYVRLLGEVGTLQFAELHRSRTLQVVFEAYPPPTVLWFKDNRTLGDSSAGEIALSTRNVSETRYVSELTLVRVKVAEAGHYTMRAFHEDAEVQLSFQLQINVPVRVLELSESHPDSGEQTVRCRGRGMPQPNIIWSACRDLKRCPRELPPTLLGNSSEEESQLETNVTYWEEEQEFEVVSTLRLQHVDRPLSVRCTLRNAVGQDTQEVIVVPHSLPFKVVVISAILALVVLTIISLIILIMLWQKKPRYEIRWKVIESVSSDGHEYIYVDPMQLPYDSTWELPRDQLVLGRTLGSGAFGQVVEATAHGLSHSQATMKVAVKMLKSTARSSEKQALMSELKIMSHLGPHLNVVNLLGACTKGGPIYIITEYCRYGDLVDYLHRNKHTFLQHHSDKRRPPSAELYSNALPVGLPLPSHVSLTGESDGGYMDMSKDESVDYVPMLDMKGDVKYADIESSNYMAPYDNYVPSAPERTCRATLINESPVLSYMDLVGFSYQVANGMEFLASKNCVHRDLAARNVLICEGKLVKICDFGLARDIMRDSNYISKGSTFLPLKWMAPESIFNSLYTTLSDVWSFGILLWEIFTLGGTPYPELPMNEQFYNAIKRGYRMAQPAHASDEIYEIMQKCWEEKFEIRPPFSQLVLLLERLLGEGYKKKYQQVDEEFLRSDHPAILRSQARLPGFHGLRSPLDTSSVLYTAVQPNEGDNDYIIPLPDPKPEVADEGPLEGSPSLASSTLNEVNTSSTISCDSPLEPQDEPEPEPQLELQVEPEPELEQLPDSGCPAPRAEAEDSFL
Procedure: PDGF Dependent Cell Proliferation:
NIH-3T3 mouse fibroblasts cell line engineered to stably express human PDGFIRβ was constructed and used to evaluate PDGF dependent cell proliferation. PDGFRβ NIH-3T3 cells were plated into 96-well plates at 5,000 per well and incubated with serum-free medium for 24 hours. Compounds and PDGF BB (50 ng/ml) were added and incubated for 72 hours in serum-free medium. The effects on proliferation were determined by addition of MTS reagent (Promega) according to the instruction, incubation for 2 hours at 37° C. in CO2 incubator, and record the absorbance at 490 nm using an ELISA plate reader.

[3] = tested on: A549; assay: Tumor cell proliferation (MTS), A549; assay type: cell-based; details: Homo sapiens, 72 hours, complete medium
Procedure: as §1, §2
(§3) Human Cell Lines are Listed Below:
A549: Non small cell lung carcinoma

[4] = Body weight in HCT-8 xenograft study (Example 55); assay type: in vivo, nu/nu mice
Procedure: The antitumor activity of compound 33 and compound 37 were measured in human HCT-8 colon cancer xenograft model. The female nu/nu mice of 18˜20 g were fed by normal diet for 3 days. Then the cultured HCT-8 human colon cancer cells were implanted into the armpit of 50 mice. […] One group was treated with vehicle. One group was treated with sutent, the positive control drug. Two groups were treated with compound 33. The other two groups were treated with compound 37. Compound 33 was administered twice a day with an interval of 6 hours. Other drugs and vehicle were administered once a day. Each group was dosed orally for 20 days. Tumor volumes as established by caliper measurements were recorded twice per week, along with body weights. At the end of study, the mice were killed, and tumors were weighed. The tumor growth inhibition of each group was calculated using the formula {[(the average tumor weight of vehicle group)−(the average tumor weight of drug group)]/(the average tumor weight of vehicle group)}×100%.

[5] = tested on: Bel-7402; assay: Tumor cell proliferation (MTS), Bel-7402; assay type: cell-based; details: Homo sapiens, 72 hours, complete medium
Procedure: as §1, §2, §3
Bel-7402: Hepatocellular carcinoma

[6] = tested on: MCF-7; assay: Tumor cell proliferation (MTS), MCF-7; assay type: cell-based; details: Homo sapiens, MCF7; 72 hours, complete medium
Procedure: as §1, §2, §3
MCF-7: Mammary gland adenocarcinoma

[7] = tested on: total HDAC enzyme (HeLa extract); assay: In vitro inhibition of total HDAC enzyme activity (HDAC Fluorimetric Assay/Drug Discovery Kit); assay type: biochemical
Procedure: Measurement of In Vitro Inhibition of Total HDAC Enzyme Activity:
The in vitro inhibition of total HDAC enzyme was determined by HDAC Fluorimetric Assay/Drug Discovery Kit (BIOMOL) according to manufacture's instruction. • 1. Add Assay buffer, diluted trichostatin A or test inhibitor to appropriate wells of the microtiter plate. Following table lists examples of various assay types and the additions required for each test.
• 2. Add diluted HeLa extract or other HDAC sample to all wells except those that are to be “No Enzyme Controls” (Blank). • 3. Allow diluted Fluor de Lys™ Substrate and the samples in the microtiter plate to equilibrate to assay temperature (25° C.). • 4. Initiate HDAC reactions by adding diluted substrate (25 μl) to each well and mixing thoroughly. • 5. Allow HDAC reactions to proceed for desired length of time and then stop them by addition of Fluor de Lys™ Developer (50 μl). Incubate plate at room temperature (25° C.) for 10-15 min. • 6. Read samples in a microtiter-plate reading fluorimeter capable of excitation at a wavelength in the range 350-380 nm and detection of emitted light in the range 440-460 nm. Measurement of In Vivo Inhibition of HDAC Subtype Activity: […]

[8] = Body weight in SSMC7721 xenograft study (Example 56); assay type: in vivo, nu/nu mice
Procedure: The antitumor activity of compound 33 and compound 37 were measured in human SSMC7721 liver cancer xenograft model. The female nu/nu mice of 18˜20 g were fed by normal diet for 3 days. Then the cultured SSMC7721 human liver cancer cells were implanted into the armpit of 50 mice. […] Each group has 8 mice. One group was treated with vehicle. One group was treated with sutent, the positive control drug. Two groups were treated with compound 33. The other two groups were treated with compound 37. Each group was dosed orally once a day for 30 days. Tumor volumes as established by caliper measurements were recorded twice per week, along with body weights. At the end of study, the mice were killed, and tumors were weighed. The tumor growth inhibition of each group was calculated using the formula {[(the average tumor weight of vehicle group)−(the average tumor weight of drug group)]/(the average tumor weight of vehicle group)}×100%.

[9] = tested on: HCT-8; assay: Tumor cell proliferation (MTS), HCT-8; assay type: cell-based; details: Homo sapiens, 72 hours, complete medium
Procedure: as §1, §2, §3
HCT-8: Ileocecal colorectal adenocarcinoma

[10] = tested on: Class I HDAC; assay: P21 reporter gene assay in HeLa cells; assay type: cell-based; details: 24 hours
Procedure: HDAC subtype selectivity inhibition assay of tested compounds was carried out by several reporter gene assays experiments. Briefly, HeLa cells were seeded in 96-well plates the day before transfection to give a confluence of 50-80%. Cells were transfected with one of reporter gene plasmid containing a promoter sequence or response element upstream of a luciferase gene construct using FuGene6 transfection reagent according to the manufacturer's instruction (Roche). The promoters or response elements including p21-promoter was fused upstream to the luciferase gene reporter construct. For normalizing the transfection efficiency, a GFP expression plasmid was cotransfected. Cells were allowed to express protein for 24 hours followed by addition of individual compounds or the vehicle (DMSO). 24 hours later the cells were harvested, and the luciferase assay and GFP assay were performed using corresponding assay kits according to the manufacturer's instructions (Promega).

[11] = tested on: HUVEC cells; assay: VEGF dependent cell proliferation (MTS); assay type: cell-based; details: Homo sapiens, VEGF 165 50 ng/ml, 72 hours, serum-free medium, read-out: GI50 nM (VEGF ligand-dependent cell proliferation)
Procedure: VEGF Dependent Cell Proliferation:
HUVEC cells were plated into 96-well plates at 6,000 per well and incubated with serum-free medium for 2 hours. Compounds and VEGF 165 (50 ng/ml) were added and incubated for 72 hours in serum-free medium. The effects on proliferation were determined by addition of MTS reagent (Promega) according to the instruction, incubation for 2 hours at 37° C. in CO2 incubator, and record the absorbance at 490 nm using an ELISA plate reader.

[12] = tested on: human HCT-8 colon cancer xenograft; assay: Antitumor activity of compounds 33 and 34, HCT-8 xenograft (Example 54); assay type: in vivo, nu/nu mice
Procedure: (§4) The antitumor activity of compound 33 and compound 34 were measured in human HCT-8 colon cancer xenograft model. The female nu/nu mice of 18˜20 g were fed by normal diet for 3 days. Then the cultured HCT-8 human colon cancer cells were implanted into the armpit of 50 mice. When tumors had reached approximately 100 mm^3, the mice were divided into 6 groups randomly. Each group has 8 mice. One group was treated with vehicle. One group was treated with sutent, the positive control drug. Two groups were treated with compound 33. The other two groups were treated with compound 34. Each group was dosed orally once a day for 20 days. Tumor volumes as established by caliper measurements were recorded twice per week, along with body weights. At the end of study, the mice were killed, and tumors were weighed. The tumor growth inhibition of each group was calculated using the formula {[(the average tumor weight of vehicle group)−(the average tumor weight of drug group)]/(the average tumor weight of vehicle group)}×100%.

[13] = Body weight in HCT-8 xenograft study (Example 54); assay type: in vivo, nu/nu mice
Procedure: as §4

[14] = 30 mg/kg orally once a day for 20 days
[15] = 60 mg/kg orally once a day for 20 days
[16] = 30 mg/kg orally once a day for 30 days
[17] = 60 mg/kg orally once a day for 30 days

| GI50 [1] | GI50 [2] | GI50 [3] | GI50 [5] | GI50 [6] | % inhibition of total HDAC enzyme activity at 30 μM [7] | GI50 [9] | Class I HDAC (P21 reporter assay) Fold Induction at 10 μM [10] | Compound | GI50 [11] | further results |
| --- | --- | --- | --- | --- | --- | --- | --- | --- | --- | --- |
| ≥ 30 µM | 159 nM | 30 µM | 30 µM | 30 µM | 35.9% | 30 µM | 3.0 Fold | COc1cc2nccc(Oc3ccc4c(C(=O)NCc5ccc(C(=O)Nc6ccccc6N)cc5)cccc4c3)c2cc1OC [Example 37, N-(4-((2-aminophenyl)carbamoyl)benzyl)-6-(6,7-dimethoxyquinolin-4-yloxy)-1-naphthamide] | 4 nM | Body weight (g) end [4, 14]: 23.6 ± 2.2 g; Body weight (g) start [4, 14]: 20.6 ± 0.8 g; Body weight (g) end [4, 15]: 24.1 ± 2.1 g; Body weight (g) start [4, 15]: 20.8 ± 0.8 g; Body weight (g) end [8, 16]: 25.3 ± 0.9 g; Body weight (g) start [8, 16]: 20.7 ± 1.2 g; Body weight (g) end [8, 17]: 24.3 ± 1.1 g; Body weight (g) start [8, 17]: 21.4 ± 0.6 g |
| ≥ 30 µM | 48 nM | 30 µM | 30 µM | 30 µM | 8.6% | 12.3 µM | 1.3 Fold | COc1cc2ncnc(Oc3ccc4c(C(=O)Nc5ccccc5N)cccc4c3)c2cc1OC [Example 16, N-(2-aminophenyl)-6-(6,7-dimethoxyquinazolin-4-yloxy)-1-naphthamide] | 3 nM | – |
| ≥ 30 µM | 40 nM | 30 µM | 30 µM | 30 µM | 22.5% | 3 µM | 1.1 Fold | COc1cc2ncnc(Oc3ccc4c(C(=O)Nc5ccc(F)cc5N)cccc4c3)c2cc1OC [Example 17, N-(2-amino-4-fluorophenyl)-6-(6,7-dimethoxyquinazolin-4-yloxy)-1-naphthamide] | 3 nM | – |

| Compound | GI50 [1] | GI50 [2] | GI50 [3] | GI50 [5] | GI50 [6] | % inhibition of total HDAC enzyme activity at 30 μM [7] | GI50 [9] | Class I HDAC (P21 reporter assay) Fold Induction at 10 μM [10] | GI50 [11] | further results |
| --- | --- | --- | --- | --- | --- | --- | --- | --- | --- | --- |
| COc1ccc2c(Oc3ccc4c(C(=O)NCc5ccc(C(=O)Nc6ccccc6N)cn5)cccc4c3)ccnc2c1 [Example 34] | 7.9 µM | 248 nM | 11.2 µM | 17.7 µM | 5.2 µM | 38.8% | 5.5 µM | 5.0 Fold | 90 nM | TGI (%) Tumor growth inhibition [12, 14]: 3.07%; Tumor weight [12, 14]: 3.95 ± 0.73 g; TGI (%) Tumor growth inhibition [12, 15]: 32.7%; Tumor weight [12, 15]: 2.74 ± 0.77 g; Body weight (g) end [13, 14]: 21.2 ± 1.9 g; Body weight (g) start [13, 14]: 19.7 ± 1.2 g; Body weight (g) end [13, 15]: 21.6 ± 2.3 g; Body weight (g) start [13, 15]: 19.6 ± 1.1 g |
